# Measurements: the kinase profiling compilation of Christmann-Franck et al. (2016)
# Legend:
# Assay in all cases: radiometric filter-binding kinase assay
# [1] = tested on: AKT1 (human), P31749 [S473D]
# PAK7 (human) = PAK7 (human) (UniProt Q9P286)
# NEK6 (human) = NEK6 (human) (UniProt Q9HC98)
# MAPK13 (human) = MAPK13 (human) (UniProt O15264)
# MARK1 (human) = MARK1 (human) (UniProt Q9P0L2)
# ERBB4 (human) = ERBB4 (human) (UniProt Q15303)
# TAOK1 (human) = TAOK1 (human) (UniProt Q7L7X3)
# NUAK1 (human) = NUAK1 (human) (UniProt O60285)
# PAK6 (human) = PAK6 (human) (UniProt Q9NQU5)
# ROCK2 (rat) = conditions: accession and sequence are those of the human protein
# MST4 (human) = MST4 (human) (UniProt Q9P289)
# EEF2K (human) = EEF2K (human) (UniProt O00418)
# EPHB3 (human) = EPHB3 (human) (UniProt P54753)
# BTK (human) = BTK (human) (UniProt Q06187)
# DYRK2 (human) = DYRK2 (human) (UniProt Q92630)
# IKBKE (human) = IKBKE (human) (UniProt Q14164)
# DAPK1 (human) = DAPK1 (human) (UniProt P53355)
# CaMK1 (human) = CaMK1 (human) (UniProt Q14012)
# PAK4 (human) = PAK4 (human) (UniProt O96013)
# MARK3 (human) = MARK3 (human) (UniProt P27448)
# DYRK1A (human) = DYRK1A (human) (UniProt Q13627)
# CSNK2A1 (human) = CSNK2A1 (human) (UniProt P68400)
# PRKCZ (human) = PRKCZ (human) (UniProt Q05513)
# MAP3K9 (human) = MAP3K9 (human) (UniProt P80192)
# HIPK2 (human) = HIPK2 (human) (UniProt Q9H2X6)
# DYRK3 (human) = DYRK3 (human) (UniProt O43781)
# MAPK11 (human) = MAPK11 (human) (UniProt Q15759)
# MAP2K6 (human) = MAP2K6 (human) (UniProt P52564)
# EPHB1 (human) = EPHB1 (human) (UniProt P54762)
# LCK (mouse) = conditions: accession and sequence are those of the human protein
# RPS6KA5 KD1 KD2 (human) = RPS6KA5 KD1 KD2 (human) (UniProt O75582)
# HIPK3 (human) = HIPK3 (human) (UniProt Q9H422)
# EPHA2 (human) = EPHA2 (human) (UniProt P29317)
# HIPK1 (human) = HIPK1 (human) (UniProt Q86Z02)
# MAPK14 (human) = MAPK14 (human) (UniProt Q16539)
# CSNK2A1 (human), sequence (P68400 whole entry, looked up): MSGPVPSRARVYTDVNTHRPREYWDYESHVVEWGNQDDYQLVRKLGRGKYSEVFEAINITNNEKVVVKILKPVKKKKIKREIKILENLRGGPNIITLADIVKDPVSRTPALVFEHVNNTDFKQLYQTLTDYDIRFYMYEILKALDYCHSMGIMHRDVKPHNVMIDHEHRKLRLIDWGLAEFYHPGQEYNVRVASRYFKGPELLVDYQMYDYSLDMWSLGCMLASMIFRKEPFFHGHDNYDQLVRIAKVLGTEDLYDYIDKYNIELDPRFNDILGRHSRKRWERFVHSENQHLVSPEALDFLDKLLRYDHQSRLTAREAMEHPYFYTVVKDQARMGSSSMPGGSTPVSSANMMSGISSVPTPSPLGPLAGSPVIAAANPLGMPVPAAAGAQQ
# CaMK1 (human), sequence (Q14012 whole entry, looked up): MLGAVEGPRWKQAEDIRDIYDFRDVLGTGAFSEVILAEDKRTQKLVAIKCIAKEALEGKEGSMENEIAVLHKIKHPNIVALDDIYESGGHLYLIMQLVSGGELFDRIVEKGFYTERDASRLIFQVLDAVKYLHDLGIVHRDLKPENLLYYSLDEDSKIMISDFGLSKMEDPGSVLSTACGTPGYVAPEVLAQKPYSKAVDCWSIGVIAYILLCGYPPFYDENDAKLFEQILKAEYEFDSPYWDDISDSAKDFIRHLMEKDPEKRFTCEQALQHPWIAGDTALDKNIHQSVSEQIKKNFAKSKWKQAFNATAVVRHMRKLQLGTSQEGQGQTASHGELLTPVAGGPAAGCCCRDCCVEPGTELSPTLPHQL
# MAPK11 (human), sequence (Q15759 whole entry, looked up): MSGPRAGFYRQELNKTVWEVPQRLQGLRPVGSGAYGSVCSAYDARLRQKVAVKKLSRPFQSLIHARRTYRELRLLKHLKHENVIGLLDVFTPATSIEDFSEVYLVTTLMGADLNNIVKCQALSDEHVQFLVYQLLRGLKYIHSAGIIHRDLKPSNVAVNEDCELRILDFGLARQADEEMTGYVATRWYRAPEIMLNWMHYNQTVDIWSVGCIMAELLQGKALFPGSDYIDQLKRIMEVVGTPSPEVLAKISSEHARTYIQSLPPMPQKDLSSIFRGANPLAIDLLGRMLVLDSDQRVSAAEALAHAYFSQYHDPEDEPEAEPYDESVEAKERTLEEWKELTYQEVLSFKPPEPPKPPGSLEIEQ
# MAP2K6 (human), sequence (P52564 whole entry, looked up): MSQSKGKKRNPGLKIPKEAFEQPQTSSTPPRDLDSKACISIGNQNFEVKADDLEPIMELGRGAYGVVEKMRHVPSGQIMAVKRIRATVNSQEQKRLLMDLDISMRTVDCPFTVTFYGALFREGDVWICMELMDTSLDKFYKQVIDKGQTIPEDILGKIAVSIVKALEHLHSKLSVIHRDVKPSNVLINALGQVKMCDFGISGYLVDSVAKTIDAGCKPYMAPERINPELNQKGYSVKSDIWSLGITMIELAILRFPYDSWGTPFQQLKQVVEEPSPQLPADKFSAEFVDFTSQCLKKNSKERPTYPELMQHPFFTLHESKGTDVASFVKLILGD
# EEF2K (human), sequence (O00418 whole entry, looked up): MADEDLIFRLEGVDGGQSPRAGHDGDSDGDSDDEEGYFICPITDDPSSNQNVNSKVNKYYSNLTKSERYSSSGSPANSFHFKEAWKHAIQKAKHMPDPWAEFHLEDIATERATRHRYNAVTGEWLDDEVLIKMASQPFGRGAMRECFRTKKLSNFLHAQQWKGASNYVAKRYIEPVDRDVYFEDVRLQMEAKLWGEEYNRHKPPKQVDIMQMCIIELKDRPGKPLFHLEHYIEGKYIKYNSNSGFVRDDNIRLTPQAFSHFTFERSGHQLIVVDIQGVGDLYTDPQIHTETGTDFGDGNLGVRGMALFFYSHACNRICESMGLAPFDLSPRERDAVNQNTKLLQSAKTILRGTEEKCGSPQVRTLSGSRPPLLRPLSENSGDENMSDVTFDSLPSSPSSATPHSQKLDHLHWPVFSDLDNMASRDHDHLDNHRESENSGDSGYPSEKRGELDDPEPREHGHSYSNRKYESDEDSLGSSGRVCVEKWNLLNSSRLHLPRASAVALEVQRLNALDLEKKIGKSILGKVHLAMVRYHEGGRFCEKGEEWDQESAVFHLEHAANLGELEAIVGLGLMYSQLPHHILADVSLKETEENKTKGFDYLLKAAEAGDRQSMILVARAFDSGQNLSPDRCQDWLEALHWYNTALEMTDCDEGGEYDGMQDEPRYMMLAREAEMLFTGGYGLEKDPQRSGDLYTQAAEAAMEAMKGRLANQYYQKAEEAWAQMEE
# EPHA2 (human), sequence (P29317 whole entry, looked up): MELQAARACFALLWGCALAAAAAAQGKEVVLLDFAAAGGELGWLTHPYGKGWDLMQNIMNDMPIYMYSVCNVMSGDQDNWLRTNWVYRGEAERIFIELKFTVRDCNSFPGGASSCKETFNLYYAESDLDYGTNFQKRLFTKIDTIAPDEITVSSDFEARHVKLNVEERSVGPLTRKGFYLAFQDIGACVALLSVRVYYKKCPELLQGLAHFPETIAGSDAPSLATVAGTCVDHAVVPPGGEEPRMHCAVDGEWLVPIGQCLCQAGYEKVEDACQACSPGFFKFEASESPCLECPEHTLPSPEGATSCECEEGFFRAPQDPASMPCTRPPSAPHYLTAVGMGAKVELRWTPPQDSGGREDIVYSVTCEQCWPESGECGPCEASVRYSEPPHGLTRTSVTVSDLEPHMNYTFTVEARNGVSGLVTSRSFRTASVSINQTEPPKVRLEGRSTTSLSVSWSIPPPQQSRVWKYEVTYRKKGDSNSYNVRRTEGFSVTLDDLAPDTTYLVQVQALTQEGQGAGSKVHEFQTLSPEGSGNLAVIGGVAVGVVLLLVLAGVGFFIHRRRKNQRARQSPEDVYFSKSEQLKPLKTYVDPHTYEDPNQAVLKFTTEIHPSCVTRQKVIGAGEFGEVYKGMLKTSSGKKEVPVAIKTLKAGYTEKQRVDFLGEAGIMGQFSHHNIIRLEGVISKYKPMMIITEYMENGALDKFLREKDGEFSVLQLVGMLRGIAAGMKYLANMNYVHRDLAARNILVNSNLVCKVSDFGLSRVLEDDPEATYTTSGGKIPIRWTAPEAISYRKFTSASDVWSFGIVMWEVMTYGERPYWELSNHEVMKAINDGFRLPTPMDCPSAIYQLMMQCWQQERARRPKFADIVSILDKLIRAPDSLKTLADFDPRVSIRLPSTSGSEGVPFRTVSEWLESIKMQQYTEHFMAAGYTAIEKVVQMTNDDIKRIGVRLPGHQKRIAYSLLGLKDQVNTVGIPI
# HIPK1 (human), sequence (Q86Z02 whole entry, looked up): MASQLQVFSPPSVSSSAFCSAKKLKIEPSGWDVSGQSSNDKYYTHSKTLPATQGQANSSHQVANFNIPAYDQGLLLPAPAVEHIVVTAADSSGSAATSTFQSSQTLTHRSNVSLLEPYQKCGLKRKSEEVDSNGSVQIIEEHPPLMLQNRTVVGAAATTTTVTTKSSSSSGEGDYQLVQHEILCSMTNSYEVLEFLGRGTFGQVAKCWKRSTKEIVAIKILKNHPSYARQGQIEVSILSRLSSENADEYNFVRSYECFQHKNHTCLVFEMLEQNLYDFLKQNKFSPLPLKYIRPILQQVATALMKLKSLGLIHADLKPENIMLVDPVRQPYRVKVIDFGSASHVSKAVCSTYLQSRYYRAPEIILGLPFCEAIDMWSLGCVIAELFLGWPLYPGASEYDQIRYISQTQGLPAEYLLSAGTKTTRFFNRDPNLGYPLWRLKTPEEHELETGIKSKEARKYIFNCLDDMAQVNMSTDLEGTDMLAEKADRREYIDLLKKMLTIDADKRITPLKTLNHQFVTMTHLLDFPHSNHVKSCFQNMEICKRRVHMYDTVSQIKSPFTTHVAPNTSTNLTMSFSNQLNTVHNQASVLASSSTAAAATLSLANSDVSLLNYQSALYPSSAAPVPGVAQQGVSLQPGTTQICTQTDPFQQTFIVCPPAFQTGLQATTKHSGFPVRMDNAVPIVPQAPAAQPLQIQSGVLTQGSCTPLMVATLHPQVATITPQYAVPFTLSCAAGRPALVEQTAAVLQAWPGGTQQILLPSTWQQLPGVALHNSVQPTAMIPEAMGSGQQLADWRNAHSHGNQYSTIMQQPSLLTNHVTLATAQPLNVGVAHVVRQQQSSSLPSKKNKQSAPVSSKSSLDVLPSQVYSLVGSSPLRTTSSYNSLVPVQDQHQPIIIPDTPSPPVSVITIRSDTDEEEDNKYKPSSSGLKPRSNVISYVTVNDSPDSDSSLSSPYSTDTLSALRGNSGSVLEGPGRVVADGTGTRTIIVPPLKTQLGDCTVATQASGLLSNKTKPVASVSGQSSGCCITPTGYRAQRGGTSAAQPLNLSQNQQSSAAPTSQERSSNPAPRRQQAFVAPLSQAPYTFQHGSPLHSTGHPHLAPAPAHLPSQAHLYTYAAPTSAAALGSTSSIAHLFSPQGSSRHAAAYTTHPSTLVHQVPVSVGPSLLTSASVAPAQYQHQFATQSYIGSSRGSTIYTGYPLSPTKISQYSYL
# PRKCZ (human), sequence (Q05513 whole entry, looked up): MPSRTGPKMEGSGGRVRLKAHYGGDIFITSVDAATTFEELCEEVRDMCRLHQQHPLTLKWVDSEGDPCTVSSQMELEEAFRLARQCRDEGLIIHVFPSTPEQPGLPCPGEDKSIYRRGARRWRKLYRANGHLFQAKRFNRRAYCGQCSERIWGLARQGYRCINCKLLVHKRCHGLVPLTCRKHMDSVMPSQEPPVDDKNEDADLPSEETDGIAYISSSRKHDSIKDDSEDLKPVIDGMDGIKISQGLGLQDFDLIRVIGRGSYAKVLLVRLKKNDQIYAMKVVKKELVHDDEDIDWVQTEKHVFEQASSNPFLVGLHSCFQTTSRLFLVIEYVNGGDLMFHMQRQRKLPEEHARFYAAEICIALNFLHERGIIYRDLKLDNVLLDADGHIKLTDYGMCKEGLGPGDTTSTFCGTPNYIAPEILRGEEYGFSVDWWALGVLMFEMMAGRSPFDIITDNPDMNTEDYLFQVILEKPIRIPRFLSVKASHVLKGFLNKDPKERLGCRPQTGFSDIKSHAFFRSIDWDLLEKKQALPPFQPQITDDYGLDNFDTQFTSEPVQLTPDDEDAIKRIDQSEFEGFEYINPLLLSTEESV
compound,measurement,setting,value
CC1=C(CO)C(=O)O[C@@H]([C@@H](C)[C@H]2CC[C@H]3[C@@H]4C[C@H]5O[C@]56[C@@H](O)C=CC(=O)[C@]6(C)C4CC[C@]23C)C1 (some centres undefined),residual activity,[1]; compound 0.1 µM,118%
same,residual activity,[1]; compound 1.0 µM,99%
same,residual activity,[1]; compound 10.0 µM,105%
same,residual activity,PAK7 (human); compound 0.1 µM,102%
same,residual activity,PAK7 (human); compound 1.0 µM,116%
same,residual activity,PAK7 (human); compound 10.0 µM,111%
same,residual activity,NEK6 (human); compound 1.0 µM,102%
same,residual activity,NEK6 (human); compound 10.0 µM,111%
same,residual activity,MAPK13 (human); compound 0.1 µM,106%
same,residual activity,MAPK13 (human); compound 1.0 µM,110%
same,residual activity,MAPK13 (human); compound 10.0 µM,92%
same,residual activity,MARK1 (human); compound 0.1 µM,106%
same,residual activity,MARK1 (human); compound 1.0 µM,115%
same,residual activity,MARK1 (human); compound 10.0 µM,111%
same,residual activity,ERBB4 (human); compound 0.1 µM,113%
same,residual activity,ERBB4 (human); compound 1.0 µM,109%
same,residual activity,ERBB4 (human); compound 10.0 µM,101%
same,residual activity,TAOK1 (human); compound 0.1 µM,103%
same,residual activity,TAOK1 (human); compound 1.0 µM,113%
same,residual activity,TAOK1 (human); compound 10.0 µM,120%
same,residual activity,NUAK1 (human); compound 0.1 µM,112%
same,residual activity,NUAK1 (human); compound 1.0 µM,121%
same,residual activity,NUAK1 (human); compound 10.0 µM,110%
same,residual activity,PAK6 (human); compound 0.1 µM,125%
same,residual activity,PAK6 (human); compound 1.0 µM,126%
same,residual activity,PAK6 (human); compound 10.0 µM,105%
same,residual activity,ROCK2 (rat); compound 0.1 µM,103%
same,residual activity,ROCK2 (rat); compound 1.0 µM,107%
same,residual activity,ROCK2 (rat); compound 10.0 µM,112%
same,residual activity,MST4 (human); compound 0.1 µM,97%
same,residual activity,MST4 (human); compound 1.0 µM,95%
same,residual activity,EEF2K (human); compound 0.1 µM,104%
same,residual activity,EEF2K (human); compound 1.0 µM,100%
same,residual activity,EEF2K (human); compound 10.0 µM,97%
same,residual activity,EPHB3 (human); compound 0.1 µM,114%
same,residual activity,EPHB3 (human); compound 1.0 µM,104%
same,residual activity,EPHB3 (human); compound 10.0 µM,97%
same,residual activity,BTK (human); compound 0.1 µM,118%
same,residual activity,BTK (human); compound 1.0 µM,115%
same,residual activity,BTK (human); compound 10.0 µM,110%
same,residual activity,DYRK2 (human); compound 0.1 µM,97%
same,residual activity,DYRK2 (human); compound 1.0 µM,88%
same,residual activity,DYRK2 (human); compound 10.0 µM,104%
same,residual activity,IKBKE (human); compound 0.1 µM,96%
same,residual activity,IKBKE (human); compound 1.0 µM,97%
same,residual activity,IKBKE (human); compound 10.0 µM,61%
same,residual activity,DAPK1 (human); compound 0.1 µM,108%
same,residual activity,DAPK1 (human); compound 1.0 µM,95%
same,residual activity,DAPK1 (human); compound 10.0 µM,108%
same,residual activity,CaMK1 (human); compound 0.1 µM,92%
same,residual activity,CaMK1 (human); compound 1.0 µM,84%
same,residual activity,CaMK1 (human); compound 10.0 µM,30%
same,residual activity,PAK4 (human); compound 0.1 µM,94%
same,residual activity,PAK4 (human); compound 1.0 µM,104%
same,residual activity,PAK4 (human); compound 10.0 µM,104%
same,residual activity,MARK3 (human); compound 0.1 µM,99%
same,residual activity,MARK3 (human); compound 1.0 µM,114%
same,residual activity,MARK3 (human); compound 10.0 µM,118%
same,residual activity,DYRK1A (human); compound 0.1 µM,92%
same,residual activity,DYRK1A (human); compound 1.0 µM,94%
same,residual activity,DYRK1A (human); compound 10.0 µM,100%
same,residual activity,CSNK2A1 (human); compound 0.1 µM,79%
same,residual activity,CSNK2A1 (human); compound 1.0 µM,94%
same,residual activity,CSNK2A1 (human); compound 10.0 µM,94%
same,residual activity,PRKCZ (human); compound 0.1 µM,103%
same,residual activity,PRKCZ (human); compound 1.0 µM,110%
same,residual activity,PRKCZ (human); compound 10.0 µM,101%
same,residual activity,MAP3K9 (human); compound 0.1 µM,91%
same,residual activity,MAP3K9 (human); compound 1.0 µM,100%
same,residual activity,MAP3K9 (human); compound 10.0 µM,86%
same,residual activity,HIPK2 (human); compound 0.1 µM,108%
same,residual activity,HIPK2 (human); compound 1.0 µM,113%
same,residual activity,HIPK2 (human); compound 10.0 µM,60%
same,residual activity,DYRK3 (human); compound 0.1 µM,103%
same,residual activity,DYRK3 (human); compound 1.0 µM,101%
same,residual activity,DYRK3 (human); compound 10.0 µM,78%
same,residual activity,MAPK11 (human); compound 0.1 µM,121%
same,residual activity,MAPK11 (human); compound 10.0 µM,128%
same,residual activity,MAP2K6 (human); compound 0.1 µM,95%
same,residual activity,MAP2K6 (human); compound 10.0 µM,109%
same,residual activity,EPHB1 (human); compound 0.1 µM,105%
same,residual activity,EPHB1 (human); compound 1.0 µM,101%
same,residual activity,EPHB1 (human); compound 10.0 µM,107%
same,residual activity,LCK (mouse); compound 1.0 µM,111%
same,residual activity,LCK (mouse); compound 10.0 µM,129%
same,residual activity,RPS6KA5 KD1 KD2 (human); compound 0.1 µM,104%
same,residual activity,RPS6KA5 KD1 KD2 (human); compound 1.0 µM,101%
same,residual activity,RPS6KA5 KD1 KD2 (human); compound 10.0 µM,99%
same,residual activity,HIPK3 (human); compound 0.1 µM,96%
same,residual activity,HIPK3 (human); compound 1.0 µM,94%
same,residual activity,HIPK3 (human); compound 10.0 µM,58%
same,residual activity,EPHA2 (human); compound 0.1 µM,94%
same,residual activity,EPHA2 (human); compound 1.0 µM,93%
same,residual activity,EPHA2 (human); compound 10.0 µM,96%
same,residual activity,HIPK1 (human); compound 0.1 µM,110%
same,residual activity,HIPK1 (human); compound 1.0 µM,112%
same,residual activity,HIPK1 (human); compound 10.0 µM,101%
same,residual activity,MAPK14 (human); compound 0.1 µM,101%
same,residual activity,MAPK14 (human); compound 1.0 µM,92%
same,residual activity,MAPK14 (human); compound 10.0 µM,95%
NS(=O)(=O)OC[C@@H]1C[C@@H](n2ccc3c(N[C@H]4CCc5ccccc54)ncnc32)C[C@@H]1O,residual activity,[1]; compound 1.0 µM,118%
same,residual activity,[1]; compound 10.0 µM,119%
same,residual activity,PAK7 (human); compound 10.0 µM,89%
same,residual activity,NEK6 (human); compound 10.0 µM,102%
same,residual activity,MAPK13 (human); compound 1.0 µM,92%
same,residual activity,MAPK13 (human); compound 10.0 µM,90%
same,residual activity,MARK1 (human); compound 1.0 µM,100%
same,residual activity,MARK1 (human); compound 10.0 µM,107%
same,residual activity,ERBB4 (human); compound 1.0 µM,110%
same,residual activity,ERBB4 (human); compound 10.0 µM,116%
same,residual activity,TAOK1 (human); compound 1.0 µM,104%
same,residual activity,TAOK1 (human); compound 10.0 µM,100%
same,residual activity,NUAK1 (human); compound 1.0 µM,98%
same,residual activity,NUAK1 (human); compound 10.0 µM,96%
same,residual activity,PAK6 (human); compound 1.0 µM,94%
same,residual activity,PAK6 (human); compound 10.0 µM,91%
same,residual activity,ROCK2 (rat); compound 10.0 µM,81%
same,residual activity,MST4 (human); compound 1.0 µM,83%
same,residual activity,MST4 (human); compound 10.0 µM,88%
same,residual activity,EEF2K (human); compound 1.0 µM,100%
same,residual activity,EEF2K (human); compound 10.0 µM,107%
same,residual activity,EPHB3 (human); compound 10.0 µM,129%
same,residual activity,BTK (human); compound 10.0 µM,105%
same,residual activity,DYRK2 (human); compound 1.0 µM,93%
same,residual activity,DYRK2 (human); compound 10.0 µM,92%
same,residual activity,IKBKE (human); compound 1.0 µM,73%
same,residual activity,IKBKE (human); compound 10.0 µM,78%
same,residual activity,DAPK1 (human); compound 1.0 µM,110%
same,residual activity,DAPK1 (human); compound 10.0 µM,113%
same,residual activity,CaMK1 (human); compound 1.0 µM,114%
same,residual activity,CaMK1 (human); compound 10.0 µM,110%
same,residual activity,PAK4 (human); compound 1.0 µM,101%
same,residual activity,PAK4 (human); compound 10.0 µM,106%
same,residual activity,MARK3 (human); compound 1.0 µM,101%
same,residual activity,MARK3 (human); compound 10.0 µM,100%
same,residual activity,DYRK1A (human); compound 1.0 µM,96%
same,residual activity,DYRK1A (human); compound 10.0 µM,103%
same,residual activity,CSNK2A1 (human); compound 1.0 µM,80%
same,residual activity,CSNK2A1 (human); compound 10.0 µM,88%
same,residual activity,PRKCZ (human); compound 10.0 µM,96%
same,residual activity,MAP3K9 (human); compound 1.0 µM,82%
same,residual activity,MAP3K9 (human); compound 10.0 µM,88%
same,residual activity,HIPK2 (human); compound 1.0 µM,88%
same,residual activity,HIPK2 (human); compound 10.0 µM,97%
same,residual activity,DYRK3 (human); compound 10.0 µM,84%
same,residual activity,MAPK11 (human); compound 1.0 µM,95%
same,residual activity,MAPK11 (human); compound 10.0 µM,98%
same,residual activity,MAP2K6 (human); compound 1.0 µM,95%
same,residual activity,MAP2K6 (human); compound 10.0 µM,94%
same,residual activity,EPHB1 (human); compound 10.0 µM,100%
same,residual activity,LCK (mouse); compound 1.0 µM,98%
same,residual activity,LCK (mouse); compound 10.0 µM,110%
same,residual activity,RPS6KA5 KD1 KD2 (human); compound 1.0 µM,103%
same,residual activity,RPS6KA5 KD1 KD2 (human); compound 10.0 µM,110%
same,residual activity,HIPK3 (human); compound 1.0 µM,84%
same,residual activity,HIPK3 (human); compound 10.0 µM,89%
same,residual activity,EPHA2 (human); compound 10.0 µM,105%
same,residual activity,HIPK1 (human); compound 1.0 µM,98%
same,residual activity,MAPK14 (human); compound 10.0 µM,102%
